In patent publication US20230104690A1, “MATRIX METALLOPROTEINASE INHIBITORS (MMPIs)” (Brandon University, priority 2020, published 2023):
Entries after “also recorded” stand apart in the source; their conditions may differ.

Experiments:
MMP3 [1] = target: T1, MMP3 (Rattus norvegicus, UniProt P03957); test: NFF-3 fluorescence assay in C6-13 (C6-Cx43) glioma conditioned media; type: biochemical; details: 50 μM and 100 μM, over six hours, relative to untreated controls
T1 construct: endogenous in cells; host or cells: C6-13 (C6 glioma clone stably expressing Cx43), conditioned serum-free medium
T1 sequence (P03957 98-475): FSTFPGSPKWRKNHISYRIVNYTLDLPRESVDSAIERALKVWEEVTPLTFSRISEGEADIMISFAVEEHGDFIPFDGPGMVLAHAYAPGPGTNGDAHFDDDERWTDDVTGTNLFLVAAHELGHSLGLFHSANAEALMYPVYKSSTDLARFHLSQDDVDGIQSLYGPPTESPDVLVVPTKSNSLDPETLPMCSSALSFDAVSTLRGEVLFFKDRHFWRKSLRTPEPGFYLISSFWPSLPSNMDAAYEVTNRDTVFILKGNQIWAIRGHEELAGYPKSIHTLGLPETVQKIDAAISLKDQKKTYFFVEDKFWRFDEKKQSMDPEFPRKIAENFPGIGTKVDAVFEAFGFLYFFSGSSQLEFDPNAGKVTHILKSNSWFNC
Protocol: Glioma Cell Culture. […] Anal Bioanal Chem 2010, 398 (1), 477-87). […] Zymography. […] SDS-PAGE/Western Blotting. Conditioned media was collected and chilled on ice. […] Proteins were pelleted by centrifugation (12 minutes, 4800 g). Proteins were suspended in SDS-PAGE loading buffer. […] NFF-3 Fluorescence Assay. […] After conditioning, the media was collected. Each experimental condition had its own control condition. […] The experiment was conducted at 37° C. […] The docking of MMP Inhibitors.
The synthesis of the MMP Inhibitors and NFF3 analysis. The leucine-tryptophan (Leu-Trp) backbone, AP-1, and AP-2 were synthesized. All synthesized compounds were analyzed by mass spectrometry (FIG. 3). The NFF-3 assay was used to determine the biological inhibition of MMP-3 activity for ilomastat and synthesized compounds, Leu-Trp, and AP-1 relative to untreated controls. […] Linear responses of MMP3 activity was robustly measured from about 30 to about 300 minutes. All compounds were tested at a concentration of 50 μM and 100 μM, and compared to determine MMP3 suppression. From FIG. 6, concentration dependent inhibition was observed.

C6 glioma cells = details: ≤100 uM, propidium iodide stain, data not shown
From the text: (§1) Glioma Cell Culture. The C6 glioma line (American Type Culture Collection, ATCC) maintains many characteristics of GBM including cancer stem cell behavior ability to generate GBMs in rats upon injection in the brain (Grobben, B.; De Deyn, P. P.; Slegers, H., Rat C6 glioma as experimental model system for the study of glioblastoma growth and invasion. Cell Tissue Res 2002, 310 (3), 257-70; Zheng, X.; Shen, G.; Yang, X.; Liu, W., Most C6 cells are cancer stem cells: evidence from clonal and population analyses. Cancer Res 2007, 67 (8), 3691-7; and Beljebbar, A.; Dukic, S.; Amharref, N.; Manfait, M., Ex vivo and in vivo diagnosis of C6 glioblastoma development by Raman spectroscopy coupled to a microprobe. Anal Bioanal Chem 2010, 398 (1), 477-87). […] Cell Mol Neurobiol 1992, 12 (2), 163-75.) Glioma cells were maintained at 37° C., 95% air and 5% CO2 in a humidified incubator. Cells were cultivated in high glucose DMEM (4.0 g/L, ThermoFisher Scientific) containing L-glutamine (4.0 mM), antibiotics (penicillin, 100 IU/mL; streptomycin, 100 μg/mL) and 10% fetal bovine serum (FBS; Gibco). For collection of conditioned media, cells were plated in 6-well plate (200,000 cells/well) and grown to 80% confluency over the course of 3 days. […] Protein concentration was determined by BCA assay and samples suspended in SDS loading buffer (no DTT and without boiling). […]

MMP3 [2] = target: T1, MMP3; test: Gelatin zymography of C6-13 conditioned media; type: cell-based; details: ilomastat 0-100 uM, 0.1% gelatin
From the text: as §1

With CNC(=O)[C@H](Cc1c[nH]c2ccccc12)NC(=O)[C@@H](CC(=O)NO)CC(C)C [Ilomastat] as the compound, how does the “Inhibition of MMP-3 activity (NFF-3 fluorescence)” value (MMP3 [1]) read?
The value was “perform better than Leu-Trp at inhibiting MMP-3”.

And the Cell death (C6 glioma cells)?
Its Cell death is < 1%.

And the “Loss of MMP3 activity (zymography)” value (MMP3 [2])?
Its value is “concentration-dependent inhibition of secreted MMP3; also recorded: dose-dependent loss of MMP3 activity”.

For CC(C)C[C@H](N)C(=O)N[C@@H](Cc1c[nH]c2ccccc12)C(=O)O [Leu-Trp], which “Inhibition of MMP-3 activity (NFF-3 fluorescence)” value (MMP3 [1]) is on record?
The value was “can act as a competitive inhibitor”.
